Series [1] is described as follows: Stability in pooled human plasma measured upto 24 hrs by UPLC-MS analysis. It is filed as ADME, cell-free.
For series [2], the target named is Urokinase-type plasminogen activator (Homo sapiens, UniProt P00749). Kind of series: Inhibition of Urokinase-type plasminogen activator (unknown origin).
The test system of series [3] is Plasma. Kind of series: Anticoagulant activity in pooled human plasma assessed as reduction in ellagic acid induced thrombin generation using Z-GGR-AMC as fluorogenic substrate at 4 uM by calibrated automated thrombogram analysis. It is filed as functional, cell-free.
In a further series the target is Plasminogen (Homo sapiens, UniProt P00747). Kind of series: Inhibition of plasmin (unknown origin).
Series [4] concerns the target T1, Coagulation factor XII (Homo sapiens, UniProt P00748).
T1 sequence (P00748 whole entry): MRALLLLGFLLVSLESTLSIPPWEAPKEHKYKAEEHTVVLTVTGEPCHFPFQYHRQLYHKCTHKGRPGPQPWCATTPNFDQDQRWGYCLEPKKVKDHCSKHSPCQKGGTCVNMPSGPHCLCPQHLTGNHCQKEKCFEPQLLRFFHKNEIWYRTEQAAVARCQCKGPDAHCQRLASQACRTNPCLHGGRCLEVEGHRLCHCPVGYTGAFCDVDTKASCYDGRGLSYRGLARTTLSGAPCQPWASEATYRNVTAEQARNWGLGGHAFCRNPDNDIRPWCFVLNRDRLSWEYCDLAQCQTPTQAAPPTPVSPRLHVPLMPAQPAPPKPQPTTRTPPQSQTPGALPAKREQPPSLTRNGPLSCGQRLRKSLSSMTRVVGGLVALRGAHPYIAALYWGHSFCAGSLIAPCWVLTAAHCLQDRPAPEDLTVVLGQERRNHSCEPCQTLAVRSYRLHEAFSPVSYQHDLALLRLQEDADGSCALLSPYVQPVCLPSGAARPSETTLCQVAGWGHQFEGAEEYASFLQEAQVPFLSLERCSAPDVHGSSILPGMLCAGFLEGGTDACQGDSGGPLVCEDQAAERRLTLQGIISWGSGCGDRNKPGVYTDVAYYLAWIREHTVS
In words: Inhibition of human factor 12a using H-D-Pro-Phe-Arg-p-nitroanilide as chromogenic substrate assessed as liberation of p-nitroaniline measured every 5 mins for 60 min by multimode plate reader analysis.

The subject of series [5] is Plasma. In words: Anticoagulant activity in pooled human plasma assessed as prolongation of activated partial thromboplastin time at 1.25 uM incubated for 7 mins. The format is functional, cell-free.
The target in another series is T2, Coagulation factor VII (Homo sapiens, UniProt P08709).
T2 sequence (P08709 whole entry): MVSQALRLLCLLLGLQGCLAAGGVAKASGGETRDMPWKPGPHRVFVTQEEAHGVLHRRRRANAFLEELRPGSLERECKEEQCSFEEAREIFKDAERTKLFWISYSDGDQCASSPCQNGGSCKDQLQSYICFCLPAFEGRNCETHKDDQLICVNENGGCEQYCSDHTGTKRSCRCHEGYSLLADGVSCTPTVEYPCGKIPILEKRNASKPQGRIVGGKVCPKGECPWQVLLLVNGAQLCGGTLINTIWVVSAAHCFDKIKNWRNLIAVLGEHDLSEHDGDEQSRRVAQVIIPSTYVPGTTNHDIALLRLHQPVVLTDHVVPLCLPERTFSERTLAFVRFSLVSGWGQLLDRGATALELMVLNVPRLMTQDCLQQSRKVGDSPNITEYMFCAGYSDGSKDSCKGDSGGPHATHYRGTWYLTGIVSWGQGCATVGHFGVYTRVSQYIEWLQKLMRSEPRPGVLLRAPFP
In words: Inhibition of factor 7a (unknown origin).

The target in the next series is Plasma kallikrein (Homo sapiens, UniProt P03952). Kind of series: Inhibition of plasma kallikrein (unknown origin). The format is cell-free.
Series [6] concerns Plasma. In words: Anticoagulant activity in pooled human plasma assessed as prolongation of activated partial thromboplastin time at 12.5 uM incubated for 7 mins. The format is functional, cell-free.
The species named for the next series is Homo sapiens. Kind of series: Selectivity index, ratio of IC50 for inhibition of human factor 12a using H-D-Pro-Phe-Arg-p-nitroanilide as chromogenic substrate to IC50 for inhibition of human factor 10a using methoxycarbonyl-D-Nle-Gly-Arg-pNA as substrate.
Series [7] has as its system Plasma. In words: Anticoagulant activity in pooled human plasma assessed as prolongation of prothrombin time at 12.5 uM incubated for 7 mins. It is filed as functional, cell-free.
Series [8] has as its system Plasma. In words: Anticoagulant activity in FXII-deficient human plasma assessed as effect on total thrombin generation using Z-GGR-AMC as fluorogenic substrate at 8 uM by calibrated automated thrombogram analysis. The format is functional, cell-free.
Series [9] addresses T3, Coagulation factor XII (Homo sapiens) (UniProt P00748).
T3 sequence (whole entry): T1 sequence (P00748 whole entry)
In words: Inhibition of human factor 12a activation in citrated pooled human plasma assessed as inhibition of bradykinin release incubated for 10 mins followed by kaolin addition and measured after 15 mins by ELISA. The format is cell-free. The conditions noted are these: dose 1-200 µM, time 25.0 min. On the technique in general: An ELISA detects its analyte on a solid surface through an enzyme-linked reagent.

Series [10] addresses T1, Coagulation factor XII. Kind of series: Inhibition of human factor 12a using H-D-Pro-Phe-Arg-p-nitroanilide as chromogenic substrate assessed as liberation of p-nitroaniline in presence of BSA measured every 5 mins for 60 min by multimode plate reader analysis.
The target in a further series is Coagulation factor X (Homo sapiens, UniProt P00742). In words: Inhibition of human factor 10a using methoxycarbonyl-D-Nle-Gly-Arg-pNA as substrate measured after 60 mins by microplate reader analysis.
The subject of series [11] is Plasma. Kind of series: Anticoagulant activity in pooled human plasma assessed as reduction in ellagic acid induced thrombin generation using Z-GGR-AMC as fluorogenic substrate by calibrated automated thrombogram analysis. It is filed as functional, cell-free.
A further series has as its target Trypsin (Homo sapiens, UniProt P07477+P07478+P35030). Kind of series: Inhibition of trypsin (unknown origin). It is filed as protein assay.
The target of series [12] is T3, Coagulation factor XII (Homo sapiens). Kind of series: Inhibition of human factor 12a using H-D-Pro-Phe-Arg-p-nitroanilide as chromogenic substrate assessed as liberation of p-nitroaniline at […] measured every 5 mins for 60 min by multimode plate reader analysis.
For series [13] the target is unchanged. In words: Inhibition of human factor 12a using H-D-Pro-Phe-Arg-p-nitroanilide as chromogenic substrate assessed as liberation of p-nitroaniline at 2 mM measured every 5 mins for 60 min by multimode plate reader analysis.

Active and inactive are the calls of the source. No cut-off for these calls is given here. Where a SMILES comes first, the peptide text is derived from it. Bridges are numbered along the chain shown (N, C = ends).

Sequence of Coagulation factor X (P00742 41-179 limits assumed): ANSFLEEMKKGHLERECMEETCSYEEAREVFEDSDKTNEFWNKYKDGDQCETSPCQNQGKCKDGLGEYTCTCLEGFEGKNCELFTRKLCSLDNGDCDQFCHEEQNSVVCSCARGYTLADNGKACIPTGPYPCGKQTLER
Sequence of Coagulation factor X (P00742 235-488 limits assumed): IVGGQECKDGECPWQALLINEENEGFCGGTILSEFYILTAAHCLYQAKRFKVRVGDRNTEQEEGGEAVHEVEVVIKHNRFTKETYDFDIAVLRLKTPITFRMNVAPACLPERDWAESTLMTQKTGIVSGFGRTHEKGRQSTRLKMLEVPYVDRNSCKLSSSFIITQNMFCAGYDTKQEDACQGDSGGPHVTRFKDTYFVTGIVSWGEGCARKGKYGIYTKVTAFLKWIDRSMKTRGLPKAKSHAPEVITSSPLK
Sequence of Plasma kallikrein (P03952 20-390 limits assumed): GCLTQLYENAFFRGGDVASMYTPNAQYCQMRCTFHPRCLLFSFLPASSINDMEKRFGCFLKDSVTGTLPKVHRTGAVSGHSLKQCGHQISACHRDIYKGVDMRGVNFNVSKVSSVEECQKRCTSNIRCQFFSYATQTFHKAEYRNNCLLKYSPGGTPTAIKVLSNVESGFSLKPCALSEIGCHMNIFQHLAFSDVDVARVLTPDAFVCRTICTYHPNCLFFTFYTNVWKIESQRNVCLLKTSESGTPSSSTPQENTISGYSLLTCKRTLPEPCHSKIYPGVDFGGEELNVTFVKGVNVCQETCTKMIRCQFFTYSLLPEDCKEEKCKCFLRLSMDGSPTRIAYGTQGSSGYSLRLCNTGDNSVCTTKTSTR
Sequence of Plasma kallikrein (P03952 391-638 limits assumed): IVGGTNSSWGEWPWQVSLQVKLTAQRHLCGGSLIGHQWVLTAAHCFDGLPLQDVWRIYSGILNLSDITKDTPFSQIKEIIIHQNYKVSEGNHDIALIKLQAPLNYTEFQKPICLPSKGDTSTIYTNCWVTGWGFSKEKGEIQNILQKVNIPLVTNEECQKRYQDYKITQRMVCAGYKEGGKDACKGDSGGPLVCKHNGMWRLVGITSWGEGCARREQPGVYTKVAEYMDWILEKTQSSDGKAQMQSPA
Sequence of Plasminogen (P00747 97-580 limits assumed): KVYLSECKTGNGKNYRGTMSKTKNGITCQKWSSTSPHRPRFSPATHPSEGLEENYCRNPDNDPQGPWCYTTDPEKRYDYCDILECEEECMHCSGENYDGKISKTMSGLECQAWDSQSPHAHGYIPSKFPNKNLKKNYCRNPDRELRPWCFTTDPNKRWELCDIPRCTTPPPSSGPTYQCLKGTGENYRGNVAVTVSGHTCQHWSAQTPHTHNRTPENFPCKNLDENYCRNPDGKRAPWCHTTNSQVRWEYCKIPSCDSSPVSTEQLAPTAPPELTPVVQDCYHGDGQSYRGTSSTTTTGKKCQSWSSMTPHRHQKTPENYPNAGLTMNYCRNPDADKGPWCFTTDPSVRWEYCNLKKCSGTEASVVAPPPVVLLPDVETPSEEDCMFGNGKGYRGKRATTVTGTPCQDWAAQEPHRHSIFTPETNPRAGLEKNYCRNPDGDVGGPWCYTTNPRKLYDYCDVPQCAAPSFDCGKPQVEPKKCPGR
Sequence of Plasminogen (P00747 581-810 limits assumed): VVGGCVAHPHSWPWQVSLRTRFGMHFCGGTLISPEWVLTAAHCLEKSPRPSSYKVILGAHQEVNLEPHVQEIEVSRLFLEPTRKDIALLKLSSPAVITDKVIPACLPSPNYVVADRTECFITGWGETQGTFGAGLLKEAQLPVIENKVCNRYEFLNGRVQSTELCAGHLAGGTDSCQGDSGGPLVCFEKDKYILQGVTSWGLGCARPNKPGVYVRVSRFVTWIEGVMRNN

For orientation: IC50 means the concentration that gives 50% inhibition. The EC50 is the concentration giving half of the maximal effect. `CC(C)C[C@@H]1NC(=O)[C@H](Cc2ccc(O)cc2)NC(=O)CSC[C@@H](C(N)=O)NC(=O)CNC(=O)CNC(=O)[C@H](CCCNC(=N)N)NC(=O)[C@H](CC(=O)O)NC(=O)[C@H](CCCCN)NC(=O)[C@@H]2CCCN2C(=O)[C@H](CCCNC(=N)N)NC(=O)[C@H](Cc2ccccc2)NC(=O)[C@H](CCCNC(=N)N)NC1=O`: the Stability entry in series [1] is on record as “Stable”. The IC50 in series [2] was more than 100000 nM; on Plasminogen it was more than 100000 nM; on Coagulation factor XII [4] it was 62 nM; on Coagulation factor VII, more than 100000 nM; at Plasma kallikrein, more than 100000 nM; at Coagulation factor XII [10], 61 nM. Moreover, the values for the IC50 on Coagulation factor X and on Trypsin were 59000 nM and more than 31000 nM, respectively. The result with Plasma [3], with Plasma [5], with Plasma [6] and in the series on Plasma [7] was Active. In addition, in the series listed under Homo sapiens, the Ratio IC50 turned out to be 100. Moreover, in the series on Plasma [8], the result was inactive. Besides, the inhibition entry in series [9] was “Dose-Dependent Effect”. The EC50 in the series on Plasma [11] was found to be 700 nM.

With `CC(C)C[C@@H]1NC(=O)[C@H](Cc2ccc(O)cc2)NC(=O)CSC[C@@H](C(N)=O)NC(=O)CNC(=O)CNC(=O)[C@H](CCCNC(=N)N)NC(=O)[C@H](CC(=O)O)NC(=O)[C@H](CCCCN)NC(=O)[C@@H]2CCCN2C(=O)[C@H](CCCNC(=N)N)NC(=O)[C@H](Cc2ccccc2)NC(=O)[C@@H](CCCNC(=N)N)NC1=O`, the inhibition entry in [12] is “inactive”.

For `CC[C@H](C)[C@@H]1NC(=O)[C@H](Cc2c[nH]cn2)NC(=O)[C@H](CCCCN)NC(=O)[C@H](Cc2ccccc2)NC(=O)[C@H](CCCNC(=N)N)NC(=O)[C@H](CC(C)C)NC(=O)[C@H](Cc2ccc(O)cc2)NC(=O)CSC[C@@H](C(N)=O)NC(=O)CNC(=O)CNC(=O)[C@H](CC(C)C)NC(=O)[C@H](CO)NC1=O` ({CH2CO}-YLRFKHISLGGC-NH2; thioether N-12), the concentration for half-maximal inhibition (IC50) on Coagulation factor XII [4] stood at 234 nM; at Coagulation factor XII [10] it was 311 nM; on Coagulation factor X it was 17000 nM. Moreover, the outcome in the series on Plasma [6] and in the series with Plasma [7] was Active. For the same compound, in the series listed under Homo sapiens, the Ratio IC50 turned out to be 100. The result in the series on Plasma [8] was inactive. For the same compound, in the series with Plasma [11], the concentration giving a half-maximal response (EC50) came out at 3200 nM.

As for `CC(C)C[C@@H]1NC(=O)[C@H](Cc2ccc(O)cc2)NC(=O)CSC[C@@H](C(=O)N[C@@H](CCCNC(=N)N)C(=O)N[C@@H](CCCNC(=N)N)C(=O)N[C@@H](C)C(=O)N2CCC[C@H]2C(=O)N[C@@H](CC(N)=O)C(=O)N[C@@H](CO)C(N)=O)NC(=O)[C@H](CC(C)C)NC(=O)[C@H]([C@@H](C)O)NC(=O)[C@H](Cc2ccccc2)NC(=O)[C@H](CCCNC(=N)N)NC1=O` ({CH2CO}-YLRFTLCRRAPNS-NH2; thioether N-7), the IC50 in series [2] is more than 100000 nM; against Plasminogen, 61000 nM; at Coagulation factor XII [4] it was 97 nM; at Coagulation factor VII, more than 100000 nM; against Plasma kallikrein it was 43000 nM; at Coagulation factor XII [10], 157 nM. Moreover, the values for the IC50 against Coagulation factor X and against Trypsin were 35000 nM and 61000 nM, respectively. Further, the outcome in the series on Plasma [6] and with Plasma [7] was Active. Also, in the series listed under Homo sapiens, the Ratio IC50 worked out at 100. For the same compound, the EC50 with Plasma [11] turned out to be 1400 nM.

For `CC(C)C[C@H](NC(=O)[C@H](C)NC(=O)[C@H](CO)NC(=O)[C@H](CCC(=O)O)NC(=O)[C@H](Cc1ccc(O)cc1)NC(=O)[C@H](CCCNC(=N)N)NC(=O)[C@@H]1CSCC(=O)N[C@@H](Cc2ccc(O)cc2)C(=O)N[C@@H](CC(C)C)C(=O)N[C@@H](CCCNC(=N)N)C(=O)N[C@@H](Cc2ccccc2)C(=O)N[C@@H]([C@@H](C)O)C(=O)N[C@@H](CC(C)C)C(=O)N1)C(=O)N[C@@H](CO)C(N)=O` ({CH2CO}-YLRFTLCRYESALS-NH2; thioether N-7), the IC50 amounted to 372 nM at Coagulation factor XII [4], 673 nM at Coagulation factor XII [10] and 2200 nM on Coagulation factor X.

On to `CC(C)C[C@@H]1NC(=O)[C@H](Cc2ccc(O)cc2)NC(=O)CSC[C@@H](C(N)=O)NC(=O)CNC(=O)CNC(=O)[C@H](CCC(N)=O)NC(=O)[C@H](CC(N)=O)NC(=O)[C@H]([C@@H](C)O)NC(=O)[C@@H]2CCCN2C(=O)[C@H](CCCCN)NC(=O)[C@H](CC(C)C)NC(=O)[C@H](CCCNC(=N)N)NC1=O` ({CH2CO}-YLRLKPTNQGGC-NH2; thioether N-12), for which the Stability result in series [1] is reported as “Stable”. Moreover, the IC50 in series [2] was more than 100000 nM; against Plasminogen, more than 100000 nM; on Coagulation factor XII [4] it was 331 nM; at Coagulation factor VII, more than 100000 nM; against Plasma kallikrein it was more than 100000 nM; on Coagulation factor XII [10], 611 nM. The IC50 against Coagulation factor X was more than 100000 nM; at Trypsin, 12000 nM. In the series on Plasma [6], the outcome was Active. Further, the result in the series on Plasma [8] was inactive. Moreover, the inhibition entry in series [9] was “Dose-Dependent Effect”. Besides, in the series on Plasma [11], the 50% effective concentration (EC50) amounted to 2800 nM.

For the compound Ac-YLRFR-NH2, in [13], the inhibition entry is “inactive”.

Source of the values: ChEMBL document CHEMBL5042477, “Potent Cyclic Peptide Inhibitors of FXIIa Discovered by mRNA Display with Genetic Code Reprogramming” (J Med Chem, 2021).
